Experimental data taken from BindingDB's records for doi:10.1039/c2dt30198a (Shanxi University, 2012).

Experiments:
[1] = target: Tyrosine-protein phosphatase non-receptor type 9 (PTP-MEG2, Homo sapiens) (UniProt P43378); test: The assays were performed in 20 mM MOPS buffer, pH 7.2, containing 50 mM NaCl and 2 mM GSH. Compounds were dissolved in DMSO and diluted to various concentration gradients and further diluted for activity evaluations. Ten microliter of complex was mixed to 82 L enzyme solution for 30 min, followed by addition of 2 L of pNPP (0.1 M) substrate to initiat
[2] = target: T1, Tyrosine-protein phosphatase non-receptor type 1 (Homo sapiens, UniProt P18031); test: PTP inhibition assay; details: pH 7.2
T1 sequence (P18031 whole entry): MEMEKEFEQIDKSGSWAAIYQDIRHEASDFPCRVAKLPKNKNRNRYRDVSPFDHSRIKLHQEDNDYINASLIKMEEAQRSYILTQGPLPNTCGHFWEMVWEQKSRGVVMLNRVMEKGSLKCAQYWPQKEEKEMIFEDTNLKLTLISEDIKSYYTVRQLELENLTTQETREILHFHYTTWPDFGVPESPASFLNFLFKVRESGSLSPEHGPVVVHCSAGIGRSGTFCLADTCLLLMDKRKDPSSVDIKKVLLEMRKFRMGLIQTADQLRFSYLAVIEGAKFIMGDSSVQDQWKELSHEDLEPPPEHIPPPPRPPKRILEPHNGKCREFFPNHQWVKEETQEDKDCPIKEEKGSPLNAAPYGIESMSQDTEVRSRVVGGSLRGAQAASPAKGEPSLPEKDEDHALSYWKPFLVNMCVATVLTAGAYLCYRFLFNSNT
Experimental: (§1) The assays were performed in 20 mM MOPS buffer, pH 7.2, containing 50 mM NaCl and 2 mM GSH. Compounds were dissolved in DMSO and diluted to various concentration gradients and further diluted for activity evaluations. Ten microliter of complex was mixed to 82 L enzyme solution for 30 min, followed by addition of 2 L of pNPP (0.1 M) substrate to initiate the reaction. After 30 min at RT, 6 L of 2 M NaOH was added to terminate the reaction. The absorbance was measured at 405 nm.

[3] = target: T2, Tyrosine-protein phosphatase non-receptor type 11 (Homo sapiens, UniProt Q06124); test: PTP inhibition assay; details: pH 7.2
T2 sequence (Q06124 whole entry): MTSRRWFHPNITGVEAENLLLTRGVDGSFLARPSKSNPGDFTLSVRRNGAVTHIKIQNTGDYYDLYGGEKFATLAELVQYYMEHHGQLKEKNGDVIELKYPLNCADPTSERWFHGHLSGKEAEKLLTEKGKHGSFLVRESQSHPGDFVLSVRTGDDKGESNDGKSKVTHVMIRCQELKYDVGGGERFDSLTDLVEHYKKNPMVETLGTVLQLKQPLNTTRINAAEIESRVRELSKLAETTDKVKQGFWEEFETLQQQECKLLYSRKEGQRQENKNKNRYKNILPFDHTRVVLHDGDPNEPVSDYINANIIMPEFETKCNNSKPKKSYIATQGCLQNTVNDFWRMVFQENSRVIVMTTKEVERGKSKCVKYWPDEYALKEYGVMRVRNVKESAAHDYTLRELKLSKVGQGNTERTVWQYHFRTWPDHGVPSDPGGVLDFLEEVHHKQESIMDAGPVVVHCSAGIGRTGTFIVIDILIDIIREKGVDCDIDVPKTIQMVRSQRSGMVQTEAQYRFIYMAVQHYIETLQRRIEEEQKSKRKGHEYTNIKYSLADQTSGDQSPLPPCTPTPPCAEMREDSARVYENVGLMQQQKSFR
Experimental: as §1

[4] = target: T3, Tyrosine-protein phosphatase non-receptor type 2 (Homo sapiens, UniProt P17706); test: PTP inhibition assay; details: pH 7.2
T3 sequence (P17706 whole entry): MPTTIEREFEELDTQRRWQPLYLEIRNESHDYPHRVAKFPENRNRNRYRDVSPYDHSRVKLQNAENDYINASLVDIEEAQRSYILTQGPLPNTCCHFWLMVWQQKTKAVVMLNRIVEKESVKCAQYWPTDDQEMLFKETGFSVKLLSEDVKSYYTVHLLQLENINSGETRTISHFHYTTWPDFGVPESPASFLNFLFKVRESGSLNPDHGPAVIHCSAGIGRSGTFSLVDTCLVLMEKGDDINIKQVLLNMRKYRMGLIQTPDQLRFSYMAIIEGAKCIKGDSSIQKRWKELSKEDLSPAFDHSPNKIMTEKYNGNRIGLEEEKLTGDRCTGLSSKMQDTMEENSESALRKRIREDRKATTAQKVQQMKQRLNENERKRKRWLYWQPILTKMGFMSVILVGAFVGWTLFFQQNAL
Experimental: as §1

[5] = target: Tyrosine-protein phosphatase non-receptor type 6 (Homo sapiens, UniProt P29350); test: PTP inhibition assay; details: pH 7.2
Experimental: as §1

Chain of Tyrosine-protein phosphatase non-receptor type 6 (P29350 whole entry): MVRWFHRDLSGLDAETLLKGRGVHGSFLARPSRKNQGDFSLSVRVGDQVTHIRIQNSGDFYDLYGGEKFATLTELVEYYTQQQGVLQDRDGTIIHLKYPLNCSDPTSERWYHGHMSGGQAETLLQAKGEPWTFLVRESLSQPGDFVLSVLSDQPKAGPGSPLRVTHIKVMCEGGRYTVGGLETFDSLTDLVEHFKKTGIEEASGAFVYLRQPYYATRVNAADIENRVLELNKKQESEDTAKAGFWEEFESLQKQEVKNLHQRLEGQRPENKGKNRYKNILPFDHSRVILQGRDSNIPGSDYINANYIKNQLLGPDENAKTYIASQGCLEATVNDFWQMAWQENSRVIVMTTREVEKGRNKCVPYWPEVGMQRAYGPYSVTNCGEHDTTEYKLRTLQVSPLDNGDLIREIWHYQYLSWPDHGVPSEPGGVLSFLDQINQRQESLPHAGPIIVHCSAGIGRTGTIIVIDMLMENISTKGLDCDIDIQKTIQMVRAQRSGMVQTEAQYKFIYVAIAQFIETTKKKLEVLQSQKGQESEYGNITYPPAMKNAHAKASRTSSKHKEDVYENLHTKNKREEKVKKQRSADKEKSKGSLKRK
Chain of Tyrosine-protein phosphatase non-receptor type 9 (PTP-MEG2, Homo sapiens) (P43378 whole entry, looked up): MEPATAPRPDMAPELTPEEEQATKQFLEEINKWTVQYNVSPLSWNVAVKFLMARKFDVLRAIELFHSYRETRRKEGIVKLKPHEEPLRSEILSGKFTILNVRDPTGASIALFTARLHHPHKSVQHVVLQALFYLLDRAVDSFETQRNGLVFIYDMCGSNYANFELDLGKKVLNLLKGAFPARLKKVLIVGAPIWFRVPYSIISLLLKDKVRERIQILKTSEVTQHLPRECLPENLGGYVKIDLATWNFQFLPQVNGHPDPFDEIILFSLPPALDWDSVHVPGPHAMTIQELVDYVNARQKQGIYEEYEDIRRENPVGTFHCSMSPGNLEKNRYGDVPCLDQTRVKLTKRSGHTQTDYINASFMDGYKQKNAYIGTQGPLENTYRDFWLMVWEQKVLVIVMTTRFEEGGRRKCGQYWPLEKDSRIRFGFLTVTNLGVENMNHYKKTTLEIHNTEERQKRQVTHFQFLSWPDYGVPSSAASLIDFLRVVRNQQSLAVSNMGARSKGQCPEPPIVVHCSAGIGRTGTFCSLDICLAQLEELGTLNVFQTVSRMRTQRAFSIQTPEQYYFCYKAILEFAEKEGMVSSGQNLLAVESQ

IC50 [1] [µM]	IC50 [2] [µM]	IC50 [3] [µM]	IC50 [4] [µM]	IC50 [5] [µM]	Substance
2.9	0.69	35	1.9	6.5	Bis(4-bromo-2-((phenylimino)methyl)phenolate)-oxovanadium(IV) (4)
3.6	0.8	2.3	8.3	1	Bis(4-chloro-2-((phenylimino)methyl)phenolate)-oxovanadium(IV) (3)
3.2	0.93	2.6	1.4	2.5	Bis(4-nitro-2-((phenylimino)methyl)phenolate)-oxovanadium(IV) (5)
